Measurements: ChEMBL document CHEMBL4411300 (Eur J Med Chem, 2019)

Legend:
Trypanosoma cruzi [1] = experiment: Trypanocidal activity against Trypanosoma cruzi MHOM/Pe/2011/Arequipa DTU 5 epimastigotes after 48 to 72 hrs by resazurin dye based assay; type: functional, organism-based
Trypanosoma cruzi [2] = experiment: Trypanocidal activity against Trypanosoma cruzi IRHOD/CO/2008/SN3 DTU 1 epimastigotes after 48 to 72 hrs by resazurin dye based assay; type: functional, organism-based
Trypanosoma cruzi [3] = experiment: Trypanocidal activity against Trypanosoma cruzi TINF/CH/1956/Tulahuen DTU 6 epimastigotes after 48 to 72 hrs by resazurin dye based assay; type: functional, organism-based
Vero = experiment: Cytotoxicity against African green monkey Vero cells assessed as reduction in cell viability after 48 to 72 hrs by resazurin dye based assay; details: Chlorocebus sabaeus
Trypanosoma cruzi [4] = experiment: Trypanocidal activity against Trypanosoma cruzi MHOM/Pe/2011/Arequipa DTU 5 amastigotes infected in African green monkey Vero cells after 72 hrs by Giemsa-staining based microscopic assay; type: functional, organism-based; details: MHOM/Pe/2011/Arequipa DTU 5, Vero
Trypanosoma cruzi [5] = experiment: Trypanocidal activity against Trypanosoma cruzi MHOM/Pe/2011/Arequipa DTU 5 trypomastigotes derived from infected Balb/c albino mouse after 24 hrs by resazurin dye based assay; type: functional, organism-based; details: MHOM/Pe/2011/Arequipa DTU 5, 24 h
[6] = Selectivity index, ratio of IC50 for African green monkey Vero cells to IC50 for Trypanosoma cruzi MHOM/Pe/2011/Arequipa DTU 5 epimastigotes; type: toxicity; details: read-out: Ratio IC50
[7] = Selectivity index, ratio of IC50 for African green monkey Vero cells to IC50 for Trypanosoma cruzi MHOM/Pe/2011/Arequipa DTU 5 amastigotes infected in African green monkey Vero cells; type: toxicity; details: read-out: Ratio IC50
[8] = Selectivity index, ratio of IC50 for African green monkey Vero cells to IC50 for Trypanosoma cruzi MHOM/Pe/2011/Arequipa DTU 5 trypomastigotes derived from infected Balb/c albino mouse; type: toxicity; details: read-out: Ratio IC50
[9] = Selectivity index, ratio of IC50 for African green monkey Vero cells to IC50 for Trypanosoma cruzi IRHOD/CO/2008/SN3 DTU 1 epimastigotes; type: toxicity; details: read-out: Ratio IC50
[10] = Selectivity index, ratio of IC50 for African green monkey Vero cells to IC50 for Trypanosoma cruzi TINF/CH/1956/Tulahuen DTU 6 epimastigotes; type: toxicity; details: read-out: Ratio IC50
Trypanosoma cruzi [11] = experiment: Trypanocidal activity against Trypanosoma cruzi IRHOD/CO/2008/SN3 DTU 1 amastigotes infected in African green monkey Vero cells after 72 hrs by Giemsa-staining based microscopic assay; type: functional, organism-based; details: IRHOD/CO/2008/SN3 DTU 1, Vero
Trypanosoma cruzi [12] = experiment: Trypanocidal activity against Trypanosoma cruzi IRHOD/CO/2008/SN3 DTU 1 trypomastigotes derived from infected Balb/c albino mouse after 24 hrs by resazurin dye based assay; type: functional, organism-based; details: IRHOD/CO/2008/SN3 DTU 1, 24 h
Trypanosoma cruzi [13] = experiment: Trypanocidal activity against Trypanosoma cruzi TINF/CH/1956/Tulahuen DTU 6 amastigotes infected in African green monkey Vero cells after 72 hrs by Giemsa-staining based microscopic assay; type: functional, organism-based; details: TINF/CH/1956/Tulahuen DTU 6, Vero
Trypanosoma cruzi [14] = experiment: Trypanocidal activity against Trypanosoma cruzi TINF/CH/1956/Tulahuen DTU 6 trypomastigotes derived from infected Balb/c albino mouse after 24 hrs by resazurin dye based assay; type: functional, organism-based; details: TINF/CH/1956/Tulahuen DTU 6, 24 h
[15] = Selectivity index, ratio of IC50 for African green monkey Vero cells to IC50 for Trypanosoma cruzi IRHOD/CO/2008/SN3 DTU 1 amastigotes infected in African green monkey Vero cells; type: toxicity; details: read-out: Ratio IC50
[16] = Selectivity index, ratio of IC50 for African green monkey Vero cells to IC50 for Trypanosoma cruzi IRHOD/CO/2008/SN3 DTU 1 trypomastigotes derived from infected Balb/c albino mouse; type: toxicity; details: read-out: Ratio IC50
[17] = Selectivity index, ratio of IC50 for African green monkey Vero cells to IC50 for Trypanosoma cruzi TINF/CH/1956/Tulahuen DTU 6 amastigotes infected in African green monkey Vero cells; type: toxicity; details: read-out: Ratio IC50
[18] = Selectivity index, ratio of IC50 for African green monkey Vero cells to IC50 for Trypanosoma cruzi TINF/CH/1956/Tulahuen DTU 6 trypomastigotes derived from infected Balb/c albino mouse; type: toxicity; details: read-out: Ratio IC50

SMILES	IC50 (Trypanosoma cruzi [1]) [µM]	IC50 (Trypanosoma cruzi [2]) [µM]	IC50 (Trypanosoma cruzi [3]) [µM]	IC50 (Vero) [µM]	also measured
NCCCNCCN(CCNCCCN)CCNCCCN	128	124	202	1180	–
NCCN(CCN)CCNCc1c2ccccc2cc2ccccc12	29.6	16.2	54.7	20.5	–
NCCN(CCN)CCNCc1ccc2ccc3cccc4ccc1c2c34	22.7	71	21.9	33.4	–
c1ccc(-c2n[nH]cc2CNCCN(CCNCc2c[nH]nc2-c2ccccc2)CCNCc2c[nH]nc2-c2ccccc2)cc1	72.4	186	88.2	678	–
c1ccc2c(CNCCN(CCNCc3ccnc4ccccc34)CCNCc3ccnc4ccccc34)ccnc2c1	11.9	25.1	23.5	199	IC50 (Trypanosoma cruzi [4]): 20.1 µM; IC50 (Trypanosoma cruzi [5]): 14.3 µM; selectivity ratio [6]: 16.7; selectivity ratio [7]: 9.9; selectivity ratio [8]: 13.9; selectivity ratio [9]: 7.9; selectivity ratio [10]: 8.5
NCCN(CCN)CCNCc1ccc2ccccc2c1	42.5	8	13.6	202	IC50 (Trypanosoma cruzi [11]): 21.1 µM; IC50 (Trypanosoma cruzi [12]): 18.4 µM; IC50 (Trypanosoma cruzi [13]): 26.4 µM; IC50 (Trypanosoma cruzi [14]): 19 µM; selectivity ratio [6]: 4.8; selectivity ratio [9]: 25.4; selectivity ratio [15]: 9.6; selectivity ratio [16]: 11; selectivity ratio [10]: 14.8; selectivity ratio [17]: 7.7; selectivity ratio [18]: 10.6
c1ccc2cc(CNCCN(CCNCc3ccc4ccccc4c3)CCNCc3ccc4[nH]ncc4c3)ccc2c1	24	15.8	14.7	22.3	–
CN(C)c1cccc2c(S(=O)(=O)NCCN(CCN)CCN)cccc12	65.9	101	87.4	137	–
